Source: the supplement of paper PMC10307832

How the values were obtained:
Experiment in all cases: relative viability (nuclei count vs DMSO), 5 days (fraction); higher = more cells survive
BAM7 + Olaparib = compound: CCOC1=CC=CC=C1N=NC2=C(NN(C2=O)C3=NC(=CS3)C4=CC=CC=C4)C [BAM7] + O=C(c1cc(Cc2n[nH]c(=O)c3ccccc23)ccc1F)N1CCN(C(=O)C2CC2)CC1 [Olaparib] (partner 8 µM)
Summary of the method: (§1)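 A single step with final 0.05% Triton X-100, 1% formaldehyde and 1 ug/ml Hoechst fixed the cells and stained nuclei 5 days after treatment. Lung cancer cell lines in 1536-well plates had been treated by pin tool the day after seeding with one drug alone or a fixed anchor-drug dose plus five library-drug doses (not always all listed) in √10 steps, and nuclei were counted on 4× images. Relative viability is the ratio of nuclei in treated wells to nuclei in vehicle wells, taken as the median of duplicate plates.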

BAM7 + Tozasertib = compound: CCOC1=CC=CC=C1N=NC2=C(NN(C2=O)C3=NC(=CS3)C4=CC=CC=C4)C [BAM7] + Cc1cc(Nc2cc(N3CCN(C)CC3)nc(Sc3ccc(NC(=O)C4CC4)cc3)n2)n[nH]1 [Tozasertib] (partner 0.1 µM)
Summary of the method: as §1

BAM7 + Linsitinib = compound: CCOC1=CC=CC=C1N=NC2=C(NN(C2=O)C3=NC(=CS3)C4=CC=CC=C4)C [BAM7] + C[C@]1(O)C[C@@H](c2nc(-c3ccc4ccc(-c5ccccc5)nc4c3)c3c(N)nccn32)C1 [Linsitinib] (partner 1 µM)
Summary of the method: as §1

BAM7 + Lapatinib = compound: CCOC1=CC=CC=C1N=NC2=C(NN(C2=O)C3=NC(=CS3)C4=CC=CC=C4)C [BAM7] + CS(=O)(=O)CCNCc1ccc(-c2ccc3ncnc(Nc4ccc(OCc5cccc(F)c5)c(Cl)c4)c3c2)o1 [Lapatinib] (partner 2 µM)
Summary of the method: as §1

BAM7 + Bortezomib = compound: CCOC1=CC=CC=C1N=NC2=C(NN(C2=O)C3=NC(=CS3)C4=CC=CC=C4)C [BAM7] + CC(C)C[C@H](NC(=O)[C@H](Cc1ccccc1)NC(=O)c1cnccn1)B(O)O [Bortezomib] (partner 0.002 µM)
Summary of the method: as §1

Cell Line	relative viability (BAM7 + Olaparib; first compound 0.5 µM)	relative viability (BAM7 + Olaparib; first compound 5 µM)	relative viability (BAM7 + Olaparib; first compound 15.81 µM)	relative viability (BAM7 + Olaparib; first compound 50 µM)	relative viability (BAM7 + Tozasertib; first compound 0.5 µM)	relative viability (BAM7 + Tozasertib; first compound 5 µM)	relative viability (BAM7 + Tozasertib; first compound 15.81 µM)	relative viability (BAM7 + Tozasertib; first compound 50 µM)	relative viability (BAM7 + Linsitinib; first compound 0.5 µM)	relative viability (BAM7 + Linsitinib; first compound 5 µM)	relative viability (BAM7 + Linsitinib; first compound 15.81 µM)	relative viability (BAM7 + Linsitinib; first compound 50 µM)	relative viability (BAM7 + Lapatinib; first compound 0.5 µM)	relative viability (BAM7 + Lapatinib; first compound 5 µM)	relative viability (BAM7 + Lapatinib; first compound 15.81 µM)	relative viability (BAM7 + Lapatinib; first compound 50 µM)	relative viability (BAM7 + Bortezomib; first compound 0.5 µM)	relative viability (BAM7 + Bortezomib; first compound 5 µM)	relative viability (BAM7 + Bortezomib; first compound 15.81 µM)	relative viability (BAM7 + Bortezomib; first compound 50 µM)
RERF-LC-KJ	0.346	0.3	0.288	0.304	0.413	0.264	0.231	0.249	0.862	0.775	0.833	0.929	0.868	0.815	0.802	0.791	1.05	1.01	0.948	0.972
NCI-H1650	0.734	0.729	0.737	0.737	0.335	0.305	0.28	0.314					0.758	0.726	0.806	0.855	0.235	0.297	0.202	0.199
BEN	1.2	1.09	0.809	1.04	0.559	0.442	0.59	0.423	0.914	0.97	0.876	0.898	0.754	0.72	0.676	0.836	0.823	0.825	1.02	0.976
NCI-H2170	0.497	0.447	0.439	0.476	0.664	0.748	0.501	0.793					0.264	0.285	0.258	0.287				
NCI-H1299	0.961	1.02	0.981	0.923					1.02	1.14	1.02	0.936	0.835	1.01	0.954	0.964	1.02	1.04	1.03	0.963
EBC-1	0.712	0.644	0.626	0.763					0.856	1.07	0.876	0.85	0.203	0.248	0.233	0.251	0.497	0.503	0.531	0.574
NCI-H2342	0.49	0.46	0.347	0.341	0.453	0.519	0.387	0.374												
NCI-H1792	0.42	0.374	0.391	0.425					0.64	0.54	0.542	0.628	0.963	0.914	1.09	0.842	1.09	1.06	0.97	0.957
ChaGo-K-1	0.377	0.377	0.292	0.396	0.226	0.229	0.197	0.262									0.861	1.09	1.14	0.969
LK-2	0.885	0.891	0.918	0.666	0.173	0.174	0.15	0.173	0.675	0.708	0.629	0.59	1.22	1.03	1.02	1.11				
NCI-H1944	0.345	0.391	0.326	0.436	0.25	0.253	0.257	0.257	1.3	1.36	1.13	1.07	0.894	0.998	0.842	0.954				
NCI-H1793	0.926	0.882	0.791	0.95	0.274	0.269	0.223	0.262	0.971	1.15	0.653	0.789	0.8	0.636	0.64	0.93				
A549	0.323	0.319	0.432	0.476					0.658	0.617	0.57	0.559	1.08	1.05	1.03	0.924				
NCI-H358		0.535	0.547	0.608	0.136	0.0963	0.0944	0.108	0.782	0.878	0.704	0.787	0.46	0.522	0.479	0.568				
NCI-H1563									1.22	1.19	1.13	1.24	1.01	0.962	0.969	1.05	0.972	0.82	0.899	1.06
NCI-H1395	0.492	0.472	0.445	0.425	0.701	1.01	0.806	0.771	1.02	1.07	1.03	1.2	0.826	1.03	1.17	1.33				
SW 900		0.847		0.786	0.48	0.556	0.475	0.562												
IA-LM	0.912	0.794	0.797	0.775					0.755	0.705	0.545	0.672	0.766	0.816	0.784	0.748	0.789	0.98	0.756	0.777
NCI-H1703	0.497	0.454	0.357	0.62					0.791	0.856	0.75	0.791	1.1	1.17	0.936	1.2	0.428	0.304	0.164	0.338
NCI-H441	0.76	0.523	0.561	0.574	0.643	0.562	0.526	0.627	0.547	0.597	0.648	0.399					0.48	0.453	0.464	0.447
LCLC-103H	0.77	0.795	0.72	0.686	0.445	0.513	0.402	0.51	1.06	1.22	1.15	0.933					1.15	1.1	1.1	1.18
NCI-H1648	0.772	0.799	0.322	0.558	0.565	0.356		0.434												
